Literature values as cited in patent US20230233646A1, “METHOD OF TREATMENT OF CONGENITAL MYASTHENIC SYNDROME USING DOK7 GENE OR POLYPEPTIDE” (priority 2020, published 2023).

Tested on: peripheral cholinesterase enzyme

For `CN(C)C(=O)Oc1ccc[n+](C)c1` [Pyridostigmine], the “fraction of peripheral cholinesterase enzyme carbamylated” value is given as “about 30%”.
